From patent US11236087B2, “Highly active pyrazolo-piperidine substituted indole-2-carboxamides active against the hepatitis B virus (HBV)” (AiCuris GmbH & Co. KG, priority 2017, dated 2022)

Legend:
[1] = Cell viability assay (AlamarBlue) in HepAD38 cells; conditions: human
[2] = test system: HBV; experiment: Determination of HBV DNA from the supernatants of HepAD38 cells (anti-HBV activity); assay type: cell-based, hepatitis B virus; conditions: Hepatitis B virus, 144 h; HBV DNA in HepAD38 supernatant, day 6, qPCR; read-out: Cell Activity (EC50)
Method in brief: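 Supernatant viral DNA was measured by LightCycler qPCR, calibrated with pCH-9/3091 plasmid, 6 days after tetracycline-free HepAD38 cultures received half-log serial compound dilutions; untreated and tetracycline-treated cells served as controls; EC50 was fitted by non-linear regression.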

[3] = target: T1, HBV core protein (UniProt P03146); experiment: Biochemical capsid assembly assay (fluorescence quenching); parameters: species or system hepatitis B virus; conditions: read-out: Assembly Activity (IC50); BODIPY-FL labelled core protein, 300 μM NaCl, read 6 min after start
T1 construct: fused on or other part: BODIPY-FL maleimide label on the C-terminal Cys150
Description: Biochemical Capsid Assembly Assay
The screening for assembly effector activity was done based on a fluorescence quenching assay published by Zlotnick et al. (2007). The C-terminal truncated core protein containing 149 amino acids of the N-terminal assembly domain fused to a unique cysteine residue at position 150 and was expressed in E. coli using the pET expression system (Merck Chemicals, Darmstadt). Purification of core dimer protein was performed using a sequence of size exclusion chromatography steps. In brief, the cell pellet from 1 L BL21 (DE3) Rosetta2 culture expressing the coding sequence of core protein cloned NdeI/XhoI into expression plasmid pET21b was treated for 1 h on ice with a native lysis buffer (Qproteome Bacterial Protein Prep Kit; Qiagen, Hilden). After a centrifugation step the supernatant was precipitated during 2 h stirring on ice with 0.23 g/ml of solid ammonium sulfate. Following further centrifugation the resulting pellet was resolved in buffer A (100 mM Tris, pH 7.5; 100 mM NaCl; 2 mM DTT) and was subsequently loaded onto a buffer A equilibrated CaptoCore 700 column (GE HealthCare, Frankfurt). The column flow through containing the assembled HBV capsid was dialyzed against buffer N (50 mM NaHCO3 pH 9.6; 5 mM DTT) before urea was added to a final concentration of 3M to dissociate the capsid into core dimers for 1.5 h on ice. The protein solution was then loaded onto a 1 L Sephacryl S300 column. After elution with buffer N core dimer containing fractions were identified by SDS-PAGE and subsequently pooled and dialyzed against 50 mM HEPES pH 7.5; […]. To improve the assembly capacity of the purified core dimers a second round of assembly and disassembly starting with the addition of 5 M NaCl and including the size exclusion chromatography steps described above was performed. From the last chromatography step core dimer containing fractions were pooled and stored in aliquots at concentrations between 1.5 to 2.0 mg/ml at −80° C.
Immediately before labelling the core protein was reduced by adding freshly prepared DTT in a final concentration of 20 mM. After 40 min incubation on ice storage buffer and DTT was removed using a Sephadex G-25 column (GE HealthCare, Frankfurt) and 50 mM HEPES, pH 7.5. For labelling 1.6 mg/ml core protein was incubated at 4° C. and darkness overnight with BODIPY-FL maleimide (Invitrogen, Karlsruhe) in a final concentration of 1 mM. After labelling the free dye was removed by an additional desalting step using a Sephadex G-25 column. Labelled core dimers were stored in aliquots at 4° C. In the dimeric state the fluorescence signal of the labelled core protein is high and is quenched during the assembly of the core dimers to high molecular capsid structures. The screening assay was performed in black 384 well microtiter plates in a total assay volume of 10 μl using 50 mM HEPES pH 7.5 and 1.0 to 2.0 μM labelled core protein. Each screening compound was added in 8 different concentrations using a 0.5 log-unit serial dilution starting at a final concentration of 100 μM, 31.6 μM or 10 μM, In any case the DMSO concentration over the entire microtiter plate was 0.5%. The assembly reaction was started by the injection of NaCl to a final concentration of […] which induces the assembly process to approximately 25% of the maximal quenched signal. 6 min after starting the reaction the fluorescence signal was measured using a Clariostar plate reader (BMG Labtech, Ortenberg) with an excitation of 477 nm and an emission of 525 nm. As 100% and 0% assembly control HEPES buffer containing 2.5 M and 0 M NaCl was used. Experiments were performed thrice in triplicates. EC50 values were calculated by non-linear regression analysis using the Graph Pad Prism 6 software (GraphPad Software, La Jolla, USA).

T1 sequence (P03146 whole entry, looked up, the tested form may be a part): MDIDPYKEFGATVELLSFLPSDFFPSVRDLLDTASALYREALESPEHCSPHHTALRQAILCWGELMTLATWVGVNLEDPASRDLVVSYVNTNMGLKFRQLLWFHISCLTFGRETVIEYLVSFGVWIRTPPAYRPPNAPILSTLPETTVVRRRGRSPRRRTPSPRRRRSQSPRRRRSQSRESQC

Question: With `CN(C(=O)c1n[nH]c2c1CN(C(=O)c1cc3ccccc3[nH]1)CC2)[C@@H]1CCCC[C@H]1O` (racemic) [Example 192, N-[(±)-2-hydroxycyclohexyl]-5-(1H-indole-2-carbonyl)-N-methyl-1H,4H,5H,6H,7H-pyrazolo[4,3-c]pyridine-3-carboxamide] as the compound, how does the CC50 at 6 days [1] read?
Answer: > 10 µM

Question: And the EC50 [2]?
Answer: < 1 µM

Question: And the IC50 [3]?
Answer: 5 to 10 µM

Question: Which results are given for `CN(CCO)C(=O)c1n[nH]c2c1CN(C(=O)c1cc3c(C(F)F)cc(F)cc3[nH]1)CC2` [Example 3, 5-[4-(difluoromethyl)-6-fluoro-1H-indole-2-carbonyl]-N-(2-hydroxyethyl)-N-methyl-1H,4H,5H,6H,7H-pyrazolo[4,3-c]pyridine-3-carboxamide]?
Answer: CC50 at 6 days [1]: > 10 µM; EC50 [2]: < 1 µM; IC50 [3]: < 5 µM

Question: Which results are given for `CN(CCO)C(=O)c1n[nH]c2c1CN(C(=O)c1cc3c(C(F)F)cccc3[nH]1)CC2` [Example 4, 5-[4-(difluoromethyl)-1H-indole-2-carbonyl]-N-(2-hydroxyethyl)-N-methyl-1H,4H,5H,6H,7H-pyrazolo[4,3-c]pyridine-3-carboxamide]?
Answer: CC50 at 6 days [1]: > 10 µM; EC50 [2]: < 1 µM; IC50 [3]: < 5 µM

Question: What does the source list for `CN(CCO)C(=O)c1n[nH]c2c1CN(C(=O)c1cc3c(C(C)(F)F)cccc3[nH]1)CC2` [Example 5, 5-[4-(1,1-difluoroethyl)-1H-indole-2-carbonyl]-N-(2-hydroxyethyl)-N-methyl-1H,4H,5H,6H,7H-pyrazolo[4,3-c]pyridine-3-carboxamide]?
Answer: CC50 at 6 days [1]: > 32 µM; EC50 [2]: < 100 µM; IC50 [3]: < 5 µM

Question: With `CN(CCO)C(=O)c1n[nH]c2c1CN(C(=O)c1cc3cc(F)c(Cl)cc3[nH]1)CC2` [Example 6, 5-(6-chloro-5-fluoro-1H-indole-2-carbonyl)-N-(2-hydroxyethyl)-N-methyl-1H,4H,5H,6H,7H-pyrazolo[4,3-c]pyridine-3-carboxamide] as the compound, how does the CC50 at 6 days [1] read?
Answer: > 10 µM

Question: And the EC50 [2]?
Answer: < 1 µM

Question: What about the IC50 [3] of the same compound?
Answer: < 5 µM

Question: Which CC50 at 6 days [1] does the source give for `CN(CCO)C(=O)c1n[nH]c2c1CN(C(=O)c1cc3cc(F)c(F)cc3[nH]1)CC2` [Example 7, 5-(5,6-difluoro-1H-indole-2-carbonyl)-N-(2-hydroxyethyl)-N-methyl-1H,4H,5H,6H,7H-pyrazolo[4,3-c]pyridine-3-carboxamide] here?
Answer: > 10 µM

Question: And the EC50 [2]?
Answer: < 1 µM

Question: And the IC50 [3]?
Answer: < 5 µM

Question: Which CC50 at 6 days [1] does the source give for `CN(CCO)C(=O)c1n[nH]c2c1CN(C(=O)c1cc3c(F)c(F)c(F)cc3[nH]1)CC2` [Example 8, N-(2-hydroxyethyl)-N-methyl-5-(4,5,6-trifluoro-1H-indole-2-carbonyl)-1H,4H,5H,6H,7H-pyrazolo[4,3-c]pyridine-3-carboxamide] here?
Answer: > 10 µM

Question: And the EC50 [2]?
Answer: < 1 µM

Question: What about the IC50 [3] of the same compound?
Answer: < 5 µM

Question: Which results are given for `CCc1ccc(F)c2[nH]c(C(=O)N3CCc4[nH]nc(C(=O)N(C)CCO)c4C3)cc12` [Example 9, 5-(4-ethyl-7-fluoro-1H-indole-2-carbonyl)-N-(2-hydroxyethyl)-N-methyl-1H,4H,5H,6H,7H-pyrazolo[4,3-c]pyridine-3-carboxamide]?
Answer: CC50 at 6 days [1]: > 10 µM; EC50 [2]: < 1 µM; IC50 [3]: < 5 µM

Question: Which CC50 at 6 days [1] does the source give for `CCc1cc(F)cc2[nH]c(C(=O)N3CCc4[nH]nc(C(=O)N(C)CCO)c4C3)cc12` [Example 10, 5-(4-ethyl-6-fluoro-1H-indole-2-carbonyl)-N-(2-hydroxyethyl)-N-methyl-1H,4H,5H,6H,7H-pyrazolo[4,3-c]pyridine-3-carboxamide] here?
Answer: > 10 µM

Question: What about the EC50 [2] of the same compound?
Answer: < 1 µM

Question: And the IC50 [3]?
Answer: < 5 µM

Question: What does the source list for `CCc1cc(F)cc2[nH]c(C(=O)N3CCc4n[nH]c(-c5cscn5)c4C3)cc12` [Example 12, 4-ethyl-6-fluoro-2-[3-(1,3-thiazol-4-yl)-2H,4H,5H,6H,7H-pyrazolo[4,3-c]pyridine-5-carbonyl]-1H-indole]?
Answer: CC50 at 6 days [1]: > 10 µM; EC50 [2]: < 1 µM; IC50 [3]: < 5 µM

Question: What does the source list for `O=C(c1cc2ccc(Br)cc2[nH]1)N1CCc2n[nH]c(-c3cscn3)c2C1` [Example 15, 6-bromo-2-[3-(1,3-thiazol-4-yl)-2H,4H,5H,6H,7H-pyrazolo[4,3-c]pyridine-5-carbonyl]-1H-indole]?
Answer: CC50 at 6 days [1]: > 10 µM; EC50 [2]: < 1 µM; IC50 [3]: 5 to 10 µM

Question: For `O=C(c1cc2ccc(Cl)cc2[nH]1)N1CCc2n[nH]c(-c3cscn3)c2C1` [Example 16, 6-chloro-2-[3-(1,3-thiazol-4-yl)-2H,4H,5H,6H,7H-pyrazolo[4,3-c]pyridine-5-carbonyl]-1H-indole], which CC50 at 6 days [1] is on record?
Answer: > 10 µM

Question: And the EC50 [2]?
Answer: < 1 µM

Question: And the IC50 [3]?
Answer: < 5 µM

Question: With `O=C(c1cc2c(F)ccc(F)c2[nH]1)N1CCc2n[nH]c(-c3cscn3)c2C1` [Example 17, 4,7-difluoro-2-[3-(1,3-thiazol-4-yl)-2H,4H,5H,6H,7H-pyrazolo[4,3-c]pyridine-5-carbonyl]-1H-indole] as the compound, how does the CC50 at 6 days [1] read?
Answer: > 10 µM

Question: And the EC50 [2]?
Answer: < 1 µM

Question: And the IC50 [3]?
Answer: < 5 µM

Question: Which CC50 at 6 days [1] does the source give for `CCc1cccc2[nH]c(C(=O)N3CCc4n[nH]c(-c5cscn5)c4C3)cc12` [Example 18, 4-ethyl-2-[3-(1,3-thiazol-4-yl)-2H,4H,5H,6H,7H-pyrazolo[4,3-c]pyridine-5-carbonyl]-1H-indole] here?
Answer: 7.3 µM

Question: And the EC50 [2]?
Answer: < 1 µM

Question: And the IC50 [3]?
Answer: < 5 µM

Question: Which CC50 at 6 days [1] does the source give for `O=C(c1cc2c(Cl)cccc2[nH]1)N1CCc2n[nH]c(-c3cscn3)c2C1` [Example 19, 4-chloro-2-[3-(1,3-thiazol-4-yl)-2H,4H,5H,6H,7H-pyrazolo[4,3-c]pyridine-5-carbonyl]-1H-indole] here?
Answer: > 10 µM

Question: What about the EC50 [2] of the same compound?
Answer: < 1 µM

Question: What about the IC50 [3] of the same compound?
Answer: < 5 µM

Question: Which CC50 at 6 days [1] does the source give for `O=C(c1cc2c(F)cc(F)cc2[nH]1)N1CCc2n[nH]c(-c3cscn3)c2C1` [Example 20, 4,6-difluoro-2-[3-(1,3-thiazol-4-yl)-2H,4H,5H,6H,7H-pyrazolo[4,3-c]pyridine-5-carbonyl]-1H-indole] here?
Answer: > 10 µM

Question: And the EC50 [2]?
Answer: < 1 µM

Question: And the IC50 [3]?
Answer: < 5 µM

Question: What does the source list for `COC(=O)C1CCN(C(=O)c2n[nH]c3c2CN(C(=O)c2cc4ccccc4[nH]2)CC3)CC1` [Example 132, methyl 1-[5-(1H-indole-2-carbonyl)-1H,4H,5H,6H,7H-pyrazolo[4,3-c]pyridine-3-carbonyl]piperidine-4-carboxylate]?
Answer: CC50 at 6 days [1]: > 10 µM; IC50 [3]: < 5 µM

Question: Which EC50 [2] does the source give for `CN(C(=O)c1n[nH]c2c1CN(C(=O)c1cc3ccccc3[nH]1)CC2)C(C)(C)CO` [Example 143, N-(1-hydroxy-2-methylpropan-2-yl)-5-(1H-indole-2-carbonyl)-N-methyl-1H,4H,5H,6H,7H-pyrazolo[4,3-c]pyridine-3-carboxamide] here?
Answer: 1 to 25 µM

Question: And the IC50 [3]?
Answer: 5 to 10 µM

Question: For `O=C(c1cc2c(C(F)F)cc(F)cc2[nH]1)N1CCc2n[nH]c(C3CCC3)c2C1` [Example 400, 2-{3-cyclobutyl-2H,4H,5H,6H,7H-pyrazolo[4,3-c]pyridine-5-carbonyl}-4-(difluoromethyl)-6-fluoro-1H-indole], which CC50 at 6 days [1] is on record?
Answer: > 10 µM

Question: And the EC50 [2]?
Answer: < 1 µM

Question: For `O=C(c1cc2ccccc2[nH]1)N1CCc2n[nH]c(C(=O)N3CC(F)(F)CC34CC4)c2C1` [Example 401, 2-(3-{6,6-difluoro-4-azaspiro[2.4]heptane-4-carbonyl}-2H,4H,5H,6H,7H-pyrazolo[4,3-c]pyridine-5-carbonyl)-1H-indole], which CC50 at 6 days [1] is on record?
Answer: > 10 µM

Question: What about the EC50 [2] of the same compound?
Answer: < 1 µM

Question: For `CN(C(=O)c1[nH]nc2c1CN(C(=O)c1cc3ccccc3[nH]1)CC2)C1(c2ccno2)CC1` [Example 402, 5-(1H-indole-2-carbonyl)-N-methyl-N-[1-(1,2-oxazol-5-yl)cyclopropyl]-2H,4H,5H,6H,7H-pyrazolo[4,3-c]pyridine-3-carboxamide], which CC50 at 6 days [1] is on record?
Answer: > 10 µM

Question: And the EC50 [2]?
Answer: < 1 µM
